Source: US20240174644A1, “QUINOXALINE UREA INHIBITORS OF IKK-BETA AND NF-KB” (BOARD OF REGENTS OF THE UNIVERSITY OF NEBRASKA, priority 2021, published 2024)

Experiments:
caspase 3/7 = test: Caspase 3/7 activation assay in MM1S cells (Apo-One homogeneous caspase 3/7 assay); format: cell-based; details: inhibitor 10 μM, 24 h, fold change relative to the DMSO control
Method: MM1 S cells were seeded (25K cells/well) and inhibitors (10 μM) were added to these cells in triplicate. The plates were incubated for 24 h. Under multiplexing conditions, the cell viability using Alamar Blue assay and caspase activity using Apo-One homogeneous caspase 3/7 assay was determined. Data represented as fold change relative to the DMSO control.

MM1S cells = test: Growth inhibition assay in MM1S cells (Presto blue); format: cell-based; details: Homo sapiens, MM1.S, 120 h, MM1S cells (multiple myeloma model), 5-day incubation, triplicate
Method: MM1S cells were seeded (20K cells/well) and increasing concentrations of the inhibitors were added to these cells in triplicate. The plates were incubated for 5 -days after which Presto blue (544/590 ex/em wavelengths) was added and plates read after additional 15 min incubation at 37° C. The IC50 values were derived by curve fitting the data.

| SMILES | Caspase 3/7 activation (caspase 3/7) [fold change] | IC50 (MM1S cells) [µM] |
| --- | --- | --- |
| Cn1cc(-c2cnc3ccc(NC(=O)Nc4cccc(Br)c4)cc3n2)cn1 [Compound 2] | 1.06 ± 0.03 | 2.83 ± 0.09 |
| Cn1cc(-c2cnc3ccc(NC(=O)Nc4ccc(F)c(C(F)(F)F)c4)cc3n2)cn1 [Compound 8] | 1.96 ± 0.05 | 5.38 ± 0.13 |
| Cn1cc(-c2cnc3ccc(NC(=O)Nc4ccc(F)c(Br)c4)cc3c2)cn1 [Compound 6, 1-(3-Bromo-4-fluorophenyl)-3-(3-(1-methyl-1H-pyrazol-4-yl)quinolin-6-yl)urea] | 1.36 ± 0.04 | 10.6 ± 0.4 |
| Cn1cc(-c2cnc3ccc(NC(=O)Cc4ccc(F)c(Br)c4)cc3n2)cn1 [Compound 4] |  | 4.67 ± 0.09 |
| Cn1cc(-c2cnc3ccc(NC(=O)Nc4ccc(F)cc4)cc3n2)cn1 [Compound 3, 1-(4-fluorophenyl)-3-(3-(1-methyl-1H-pyrazol-4-yl)quinoxalin-6-yl)urea] | 1.03 ± 0.06 | > 20 |
| Cn1cc(-c2cnc3ccc(NC(=O)Nc4ccc(F)c(Br)c4)cc3n2)cn1 [Compound 1] |  | 5.43 ± 0.16 |
| Cn1ccc(-c2cnc3ccc(NC(=O)Nc4ccc(F)c(Br)c4)cc3n2)c1 [Compound 7, 1-(3-Bromo-4-fluorophenyl)-3-(3-(1-methyl-1 H-pyrrol-3-yl)quinoxalin-6-yl)urea] | 1.51 ± 0.01 | 2.85 ± 0.09 |
| Cn1cc(-c2cnc3ccc(NC(=O)Nc4ccc(F)c(C(F)(F)F)c4F)cc3n2)cn1 [Compound 9] | 9.79 ± 2.47 | 0.75 ± 0.01 |
| Cn1cc(-c2ccc3ccc(NC(=O)Nc4ccc(F)c(Br)c4)cc3n2)cn1 [Compound 5] |  | 5.56 ± 0.66 |
